US10206937B2, “Boronic acid derivatives and therapeutic uses thereof” (Qpex Biopharma, Inc., priority 2014, dated 2019)

Test system: strains of Enterobacteriaceae producing various carbapenemases (class A, D and B; 104 strains)
Experiment: Antibiotics potentiation by Compound 27 (MIC; meropenem, doripenem, ertapenem, cefepime)
Assay type: cell-based
Settings: + 27 = with Compound 27 at fixed 4 μg/ml

Compound: COc1ccc2c(c1C(=O)O)OB(O)C(Sc1nnc(N)s1)C2 (centres unmarked) [D + 27]
- MIC (strain CF1012 Citrobacter freundii (KPC-2)): X (MIC of less than 1 μg/mL)
- MIC (strain CF1021 Citrobacter freundii (CMY-type; VIM-1)): X (MIC of less than 1 μg/mL)
- MIC (strain CF1022 Citrobacter freundii (SHV-12(2be), TEM-OSBL(2b); IMP-8)): X (MIC of less than 1 μg/mL)
- MIC (strain CF1023 Citrobacter freundii (SHV-12(2be), TEM-OSBL(2b); CTX-M-3; CMY-34; NDM-1)): X (MIC of less than 1 μg/mL)
- MIC (strain CL1080 Enterobacter cloacae (IMP-1)): X (MIC of less than 1 μg/mL)
- MIC (strain EA1019 Enterobacter aerogenes (SHV-5, VIM-1)): X (MIC of less than 1 μg/mL)
- MIC (strain EC1007 Escherichia coli (KPC-3)): X (MIC of less than 1 μg/mL)
- MIC (strain EC1061 Escherichia coli (NDM-1, CMY-6)): X (MIC of less than 1 μg/mL)
- MIC (strain EC1062 Escherichia coli (OXA-48, CTX-M-15)): X (MIC of less than 1 μg/mL)
- MIC (strain EC1064 Escherichia coli (NDM-1, CMY-6, CTX-M-15)): Y (MIC of 1 μg/mL to 10 μg/mL)
- MIC (strain EC1065 Escherichia coli (IMP-1)): X (MIC of less than 1 μg/mL)
- MIC (strain EC1068 Escherichia coli (VIM-1)): X (MIC of less than 1 μg/mL)
- MIC (strain EC1069 Escherichia coli (CTX-M-27; NDM-1)): X (MIC of less than 1 μg/mL)
- MIC (strain EC1070 Escherichia coli (TEM-OSBL(2b); CMY-42; NDM-5)): X (MIC of less than 1 μg/mL)
- MIC (strain EC1072 Escherichia coli (CTX-M-3; NDM-1)): X (MIC of less than 1 μg/mL)
- MIC (strain ECL1004 Enterobacter cloacae (NMC-A)): X (MIC of less than 1 μg/mL)
- MIC (strain ECL1026 Enterobacter cloacae (KPC-2, TEM-1)): X (MIC of less than 1 μg/mL)
- MIC (strain ECL1036 Enterobacter cloacae (KPC-3, TEM-1)): X (MIC of less than 1 μg/mL)
- MIC (strain ECL1045 Enterobacter cloacae (VIM-1)): Y (MIC of 1 μg/mL to 10 μg/mL)
- MIC (strain ECL1055 Enterobacter cloacae (KPC-3, TEM)): X (MIC of less than 1 μg/mL)
- MIC (strain ECL1057 Enterobacter cloacae (NDM-1, TEM-1, CTX-M-15)): Z (MIC of greater than 10 μg/mL)
- MIC (strain ECL1058 Enterobacter cloacae (KPC-3, SHV-11, TEM-1)): X (MIC of less than 1 μg/mL)
- MIC (strain ECL1059 Enterobacter cloacae (KPC-3, SHV-12, TEM-1)): X (MIC of less than 1 μg/mL)
- MIC (strain ECL1061 Enterobacter cloacae (KPC-3, Hyper AmpC expression)): X (MIC of less than 1 μg/mL)
- MIC (strain ECL1082 Enterobacter cloacae (VIM-1)): X (MIC of less than 1 μg/mL)
- MIC (strain ECL1084 Enterobacter cloacae (CTX-M-15; ACT-16; NDM-1)): X (MIC of less than 1 μg/mL)
- MIC (strain ECL1085 Enterobacter cloacae (SHV-31(2be), TEM-1(2b); CTX-M-15; NDM-1)): X (MIC of less than 1 μg/mL)
- MIC (strain ECL1086 Enterobacter cloacae (VIM-31, OXA-48(c))): X (MIC of less than 1 μg/mL)
- MIC (strain ECL1087 Enterobacter cloacae (VIM-1)): X (MIC of less than 1 μg/mL)
- MIC (strain ECL1088 Enterobacter cloacae (TEM-1(2b); CTX-M-14; ACT-type; VIM-1)): X (MIC of less than 1 μg/mL)
- MIC (strain ECL1089 Enterobacter cloacae (ACT-type; IMP-1)): Y (MIC of 1 μg/mL to 10 μg/mL)
- MIC (strain ECL1090 Enterobacter cloacae (TEM-1(2b); CTX-M-22; ACT-type; IMP-8)): X (MIC of less than 1 μg/mL)
- MIC (strain ECL1091 Enterobacter cloacae (VIM-1)): Y (MIC of 1 μg/mL to 10 μg/mL)
- MIC (strain ECL1092 Enterobacter cloacae (TEM-OSBL(2b); ACT-32; VIM-1)): X (MIC of less than 1 μg/mL)
- MIC (strain ECL1093 Enterobacter cloacae (TEM-OSBL(2b); ACT-32; VIM-1)): X (MIC of less than 1 μg/mL)
- MIC (strain ECL1094 Enterobacter cloacae (VIM-1)): X (MIC of less than 1 μg/mL)
- MIC (strain ECL1096 Enterobacter cloacae (CMY-4, VIM-4, OXA-48(c))): X (MIC of less than 1 μg/mL)
- MIC (strain ECL1097 Enterobacter cloacae (SHV-31(2be), TEM-OSBL(2b); CTX-M-15; ACT-31; NDM-1)): X (MIC of less than 1 μg/mL)
- MIC (strain ECL1098 Enterobacter cloacae (TEM-OSBL(2b); DHA-1; ACT-16; NDM-1)): X (MIC of less than 1 μg/mL)
- MIC (strain KP1001 Klebsiella pneumoniae (KPC TEM SHV)): Y (MIC of 1 μg/mL to 10 μg/mL)
- MIC (strain KP1002 Klebsiella pneumoniae (KPC TEM SHV)): X (MIC of less than 1 μg/mL)
- MIC (strain KP1003 Klebsiella pneumoniae (KPC TEM SHV)): X (MIC of less than 1 μg/mL)
- MIC (strain KP1004 Klebsiella pneumoniae (KPC-2, TEM-1, SHV-11)): X (MIC of less than 1 μg/mL)
- MIC (strain KP1008 Klebsiella pneumoniae (KPC-2)): X (MIC of less than 1 μg/mL)
- MIC (strain KP1014 Klebsiella pneumoniae (VIM-1, TEM, SHV)): Y (MIC of 1 μg/mL to 10 μg/mL)
- MIC (strain KP1054 Klebsiella pneumoniae (VIM-1, SHV-11)): X (MIC of less than 1 μg/mL)
- MIC (strain KP1059 Klebsiella pneumoniae (VIM-1, SHV-11)): Y (MIC of 1 μg/mL to 10 μg/mL)
- MIC (strain KP1061 Klebsiella pneumoniae (KPC-3, SHV-11, TEM-1)): X (MIC of less than 1 μg/mL)
- MIC (strain KP1064 Klebsiella pneumoniae (KPC-2, SHV-11, TEM-1)): Y (MIC of 1 μg/mL to 10 μg/mL)
- MIC (strain KP1065 Klebsiella pneumoniae (VIM-1, SHV-11)): X (MIC of less than 1 μg/mL)
- MIC (strain KP1070 Klebsiella pneumoniae (KPC-2, SHV-11, TEM-1)): X (MIC of less than 1 μg/mL)
- MIC (strain KP1074 Klebsiella pneumoniae (KPC-3, SHV-11, TEM)): Y (MIC of 1 μg/mL to 10 μg/mL)
- MIC (strain KP1081 Klebsiella pneumoniae (NDM-1, TEM-1, SHV-11, CMY-6, CTX-M-15)): X (MIC of less than 1 μg/mL)
- MIC (strain KP1082 Klebsiella pneumoniae (KPC-2, SHV-1)): X (MIC of less than 1 μg/mL)
- MIC (strain KP1083 Klebsiella pneumoniae (KPC-3, SHV-1, TEM-1)): X (MIC of less than 1 μg/mL)
- MIC (strain KP1084 Klebsiella pneumoniae (KPC-3, SHV-11, TEM-1)): Y (MIC of 1 μg/mL to 10 μg/mL)
- MIC (strain KP1086 Klebsiella pneumoniae (OXA-48, CTX-M-15, TEM, SHV)): Y (MIC of 1 μg/mL to 10 μg/mL)
- MIC (strain KP1087 Klebsiella pneumoniae (KPC-2, CTX-M-15, SHV-11, TEM-1)): Y (MIC of 1 μg/mL to 10 μg/mL)
- MIC (strain KP1088 Klebsiella pneumoniae (KPC-3, SHV-11, TEM-1)): X (MIC of less than 1 μg/mL)
- MIC (strain KP1089 Klebsiella pneumonias (OXA-181, CTX-M-15, TEM, SHV)): X (MIC of less than 1 μg/mL)
- MIC (strain KP1095 Klebsiella pneumoniae (KPC-2 TEM-1 SHV-1)): X (MIC of less than 1 μg/mL)
- MIC (strain KP1096 Klebsiella pneumoniae (KPC-2 TEM-181 SHV-11)): X (MIC of less than 1 μg/mL)
- MIC (strain KP1097 Klebsiella pneumonias (IMP-1)): X (MIC of less than 1 μg/mL)
- MIC (strain KP1098 Klebsiella pneumoniae (IMP-26)): Y (MIC of 1 μg/mL to 10 μg/mL)
- MIC (strain KP1104 Klebsiella pneumoniae (KPC TEM)): X (MIC of less than 1 μg/mL)
- MIC (strain KP1105 Klebsiella pneumoniae (KPC TEM SHV)): X (MIC of less than 1 μg/mL)
- MIC (strain KP1159 Klebsiella pneumoniae (SHV-1(2b); CTX-M-15; IMP-4)): X (MIC of less than 1 μg/mL)
- MIC (strain KP1160 Klebsiella pneumoniae (SHV-28(2be); CTX-M-15; IMP-26)): X (MIC of less than 1 μg/mL)
- MIC (strain KP1161 Klebsiella pneumoniae (NDM-1)): X (MIC of less than 1 μg/mL)
- MIC (strain KP1164 Klebsiella pneumoniae (SHV-12(2be); VIM-1)): X (MIC of less than 1 μg/mL)
- MIC (strain KP1165 Klebsiella pneumoniae (SHV-11(2b); CTX-M-15; VIM-27)): Z (MIC of greater than 10 μg/mL)
- MIC (strain KP1166 Klebsiella pneumoniae (SHV-5(2be); VIM-26)): Y (MIC of 1 μg/mL to 10 μg/mL)
- MIC (strain KP1167 Klebsiella pneumoniae (SHV-12(2be); VIM-1)): X (MIC of less than 1 μg/mL)
- MIC (strain KP1169 Klebsiella pneumoniae (SHV-11(2b); VIM-1)): X (MIC of less than 1 μg/mL)
- MIC (strain KP1170 Klebsiella pneumoniae (SHV-11(2b); CTX-M-15; NDM-1)): X (MIC of less than 1 μg/mL)
- MIC (strain KP1172 Klebsiella pneumoniae (SHV-31(2be); DHA-1; VIM-1)): X (MIC of less than 1 μg/mL)
- MIC (strain KP1173 Klebsiella pneumoniae (TEM-33(2br); CTX-M-15; IMP-1)): X (MIC of less than 1 μg/mL)
- MIC (strain KP1174 Klebsiella pneumoniae (CTX-M-14; IMP-1)): X (MIC of less than 1 μg/mL)
- MIC (strain KP1175 Klebsiella pneumoniae (SHV-OSBL(2b); VIM-1)): X (MIC of less than 1 μg/mL)
- MIC (strain KP1177 Klebsiella pneumoniae (SHV-OSBL(2b), TEM-OSBL(2b); CTX-M-15; NDM-1)): X (MIC of less than 1 μg/mL)
- MIC (strain KP1178 Klebsiella pneumoniae (SHV-OSBL(2b;) TEM-OSBL(2b); CTX-M-15; NDM-1)): X (MIC of less than 1 μg/mL)
- MIC (strain KP1179 Klebsiella pneumoniae (SHV-12(2be), TEM-OSBL(2b); CTX-M-15; NDM-7)): X (MIC of less than 1 μg/mL)
- MIC (strain KP1180 Klebsiella pneumoniae (SHV-OSBL(2b), TEM-OSBL(2b); CTX-M-15; DHA-1; IMP-26)): X (MIC of less than 1 μg/mL)
- MIC (strain KP1181 Klebsiella pneumoniae (SHV-OSBL(2b); CTX-M-15; IMP-26)): X (MIC of less than 1 μg/mL)
- MIC (strain KP1183 Klebsiella pneumoniae (SHV-OSBL(2b), TEM-OSBL(2b); CTX-M-15; NDM-1)): X (MIC of less than 1 μg/mL)
- MIC (strain KP1184 Klebsiella pneumoniae (SHV-OSBL(2b); IMP-1)): X (MIC of less than 1 μg/mL)
- MIC (strain KP1185 Klebsiella pneumoniae (SHV-OSBL(2b), TEM-OSBL(2b); IMP-4)): X (MIC of less than 1 μg/mL)
- MIC (strain KP1186 Klebsiella pneumoniae (CTX-M-15; NDM-1)): X (MIC of less than 1 μg/mL)
- MIC (strain KP1187 Klebsiella pneumoniae (SHV-55(2be), TEM-OSBL(2b); CTX-M-15; NDM-1)): X (MIC of less than 1 μg/mL)
- MIC (strain KP1188 Klebsiella pneumoniae (SHV-OSBL(2b); CTX-M-15; NDM-1)): Y (MIC of 1 μg/mL to 10 μg/mL)
- MIC (strain KP1189 Klebsiella pneumoniae (TEM-OSBL(2b); CTX-M-15; CTX-M-27; NDM-1)): X (MIC of less than 1 μg/mL)
- MIC (strain KPM1123 Klebsiella pneumoniae (KPC-2 TEM SHV)): X (MIC of less than 1 μg/mL)
- MIC (strain KPM1202 Klebsiella pneumoniae (KPC SHV TEM)): X (MIC of less than 1 μg/mL)
- MIC (strain KPM1203 Klebsiella pneumoniae (KPC SHV TEM)): X (MIC of less than 1 μg/mL)
- MIC (strain KPM1344 Klebsiella pneumoniae (VIM-1)): X (MIC of less than 1 μg/mL)
- MIC (strain KPM1345 Klebsiella pneumoniae (VIM-1 SHV)): X (MIC of less than 1 μg/mL)
- MIC (strain KPM1347 Klebsiella pneumoniae (NDM-1 SHV CTX-M-15)): X (MIC of less than 1 μg/mL)
- MIC (strain KX1017 Klebsiella oxytoca (KPC-2, OXA-2, SHV-30)): X (MIC of less than 1 μg/mL)
- MIC (strain KX1018 Klebsiella oxytoca (KPC-2, SHV-40, OXY-1)): X (MIC of less than 1 μg/mL)
- MIC (strain KX1019 Klebsiella oxytoca (KPC-2, OXA-2)): X (MIC of less than 1 μg/mL)
- MIC (strain PM1024 Proteus mirabilis (TEM-1(2b); CMY-16; VIM-1)): X (MIC of less than 1 μg/mL)
- MIC (strain PM1026 Proteus mirabilis (DHA-1; IMP-26)): Y (MIC of 1 μg/mL to 10 μg/mL)
- MIC (strain PM1027 Proteus mirabilis (VIM-5)): X (MIC of less than 1 μg/mL)
- MIC (strain SM1023 Serratia marcescens (VIM-4)): Y (MIC of 1 μg/mL to 10 μg/mL)
